This note sets out measurements from ChEMBL document CHEMBL5715952 (Oncotarget, 2015).

Assay [1] can be described thus: Inhibition of MET/VEGFR/Tie2 in human bortezomib-resistant ANBL6 cells assessed as reduction of cell growth incubated for 72 hrs by CellTiter 96 aqueous one solution cell proliferation assay. The assay is classed as cell-based.
Assay [2] can be described thus: Inhibition of MET/VEGFR/Tie2 in human ANBL-6 cells assessed as reduction of cell growth incubated for 72 hrs by CellTiter 96 aqueous one solution cell proliferation assay. The assay is classed as cell-based. The following applies: ANBL-6, 72 h.
Assay [3] can be described thus: Ratio of IC50 for inhibition of MET/VEGFR/Tie2 in human ANBL6 cells assessed as reduction of cell viability to IC50 for inhibition of MET/VEGFR/Tie2 in human ANBL6/BR resistant cells assessed as reduction of cell viability. To be noted: condition multiple myeloma.
The nature of assay [4]: Inhibition of MET/VEGFR/Tie2 in human U-266 cells assessed as reduction of cell growth incubated for 72 hrs by CellTiter 96 aqueous one solution cell proliferation assay. It is filed as cell-based. The following applies: U-266, 72 h.
The nature of assay [5]: Ratio of IC50 for inhibition of MET/VEGFR/Tie2 in human RPMI-8226 cells assessed as reduction of cell viability to IC50 for inhibition of MET/VEGFR/Tie2 in human melphalan-resistant RPMI-8226 cells assessed as reduction of cell viability. To be noted: time 72 hrs; condition multiple myeloma.
Assay [6] can be described thus: Inhibition of MET/VEGFR/Tie2 in bortezomib Resistant human RPMI-8226 cells assessed as reduction of cell growth incubated for 72 hrs by CellTiter 96 aqueous one solution cell proliferation assay. It is filed as cell-based. The following applies: Bortezomib-resistant RPMI-8226, 72 h.
Assay [7] in a line: Ratio of IC50 for inhibition of MET/VEGFR/Tie2 in human RPMI-8226 cells assessed as reduction of cell viability to IC50 for inhibition of MET/VEGFR/Tie2 in human RPMI-8226/BR resistant cells assessed as reduction of cell viability. The following applies: condition multiple myeloma.
Assay [8] in a line: Inhibition of MET/VEGFR/Tie2 in Melphalan Resistant human RPMI-8226 cells assessed as reduction of cell growth incubated for 72 hrs by CellTiter 96 aqueous one solution cell proliferation assay. It is filed as cell-based. To be noted: Melphalan-resistant RPMI-8226 cell.
A short description of assay [9]: Inhibition of MET/VEGFR/Tie2 in human RPMI-8226 cells assessed as reduction of cell growth incubated for 72 hrs by CellTiter 96 aqueous one solution cell proliferation assay. The assay is classed as cell-based. The following applies: RPMI-8226, 72 h.
Assay [10] is described as follows: Inhibition of MEK/MAPK in human U-266 cells assessed as reduction of cell growth incubated for 72 hrs by CellTiter 96 aqueous one solution cell proliferation assay. The assay is classed as cell-based. To be noted: U-266, 72 h.
Assay [11] is described as follows: Ratio of IC50 for inhibition of MEK/MAPK in human RPMI-8226 cells assessed as reduction of cell viability to IC50 for inhibition of MEK/MAPK in human RPMI-8226/BR resistant cells assessed as reduction of cell viability. To be noted: condition multiple myeloma.
A short description of assay [12]: Inhibition of MEK/MAPK in human bortezomib-resistant ANBL6 cells assessed as reduction of cell growth incubated for 72 hrs by CellTiter 96 aqueous one solution cell proliferation assay. It is filed as cell-based.
A short description of assay [13]: Inhibition of MEK/MAPK in melphalan-resistant human RPMI-8226 cells assessed as reduction of cell growth incubated for 72 hrs by CellTiter 96 aqueous one solution cell proliferation assay. It is filed as cell-based. The following applies: Melphalan-resistant RPMI-8226 cell.
A short description of assay [14]: Inhibition of MEK/MAPK in human RPMI-8226 cells assessed as reduction of cell growth incubated for 72 hrs by CellTiter 96 aqueous one solution cell proliferation assay. The assay is classed as cell-based. To be noted: RPMI-8226, 72 h.
Assay [15] in a line: Inhibition of MEK/MAPK in human ANBL-6 cells assessed as reduction of cell growth incubated for 72 hrs by CellTiter 96 aqueous one solution cell proliferation assay. It is filed as cell-based. The following applies: ANBL-6, 72 h.
A short description of assay [16]: Ratio of IC50 for inhibition of MEK/MAPK in human ANBL6 cells assessed as reduction of cell viability to IC50 for inhibition of MEK/MAPK in human ANBL6/BR resistant cells assessed as reduction of cell viability. To be noted: condition multiple myeloma.
Assay [17] is described as follows: Inhibition of MEK/MAPK in bortezomib Resistant human RPMI-8226 cells assessed as reduction of cell growth incubated for 72 hrs by CellTiter 96 aqueous one solution cell proliferation assay. The assay is classed as cell-based. To be noted: Bortezomib-resistant RPMI-8226, 72 h.
Assay [18] is described as follows: Ratio of IC50 for inhibition of MEK/MAPK in human RPMI-8226 cells assessed as reduction of cell viability to IC50 for inhibition of MEK/MAPK in human melphalan-resistant RPMI-8226 cells assessed as reduction of cell viability. The following applies: time 72 hrs; condition multiple myeloma.
Assay [19] in a line: cells. To be noted: Homo sapiens, U-266, 72 h.
The nature of assay [20]: cells. The following applies: Homo sapiens, Bortezomib-resistant RPMI-8226, 72 h.
Assay [21] can be described thus: cells. The following applies: Homo sapiens, ANBL-6, 72 h.
The nature of assay [22]: cells. The following applies: Homo sapiens, Melphalan-resistant RPMI-8226 cell, 72 h.
Assay [23] is described as follows: Ratio of IC50 for inhibition of PI3K/mTOR in human RPMI-8226 cells assessed as reduction of cell viability to IC50 for inhibition of PI3K/mTOR in human RPMI-8226/BR resistant cells assessed as reduction of cell viability. To be noted: condition multiple myeloma.
Assay [24] can be described thus: Ratio of IC50 for inhibition of PI3K/mTOR in human ANBL6 cells assessed as reduction of cell viability to IC50 for inhibition of PI3K/mTOR in human ANBL6/BR resistant cells assessed as reduction of cell viability. To be noted: condition multiple myeloma.
Assay [25] is described as follows: Ratio of IC50 for inhibition of PI3K/mTOR in human RPMI-8226 cells assessed as reduction of cell viability to IC50 for inhibition of PI3K/mTOR in human melphalan-resistant RPMI-8226 cells assessed as reduction of cell viability. The following applies: time 72 hrs; condition multiple myeloma.
Assay [26] is described as follows: cells. The following applies: Homo sapiens, Bortezomib-resistant ANBL6 cell, 72 h.
Assay [27] can be described thus: cells. The following applies: Homo sapiens, RPMI-8226, 72 h.
Assay [28] can be described thus: cells. The following applies: Homo sapiens, Bortezomib-resistant RPMI-8226, 72 h. This is another data set of the same source.
Assay [29] is described as follows: cells. The following applies: Homo sapiens, U-266, 72 h. This is another data set of the same source.
Assay [30] can be described thus: cells. To be noted: Homo sapiens, RPMI-8226, 72 h. The source holds these as a separate data set.
Assay [31] in a line: Ratio of IC50 for inhibition of BCR-ABL/KIT/LCK/EPHA/DDR in human ANBL6 cells assessed as reduction of cell viability to IC50 for inhibition of BCR-ABL/KIT/LCK/EPHA/DDR in human ANBL6/BR resistant cells assessed as reduction of cell viability. To be noted: condition multiple myeloma.
The nature of assay [32]: cells. The following applies: Homo sapiens, ANBL-6, 72 h. This is another data set of the same source.
Assay [33] in a line: Ratio of IC50 for inhibition of BCR-ABL/KIT/LCK/EPHA/DDR in human RPMI-8226 cells assessed as reduction of cell viability to IC50 for inhibition of BCR-ABL/KIT/LCK/EPHA/DDR in human RPMI-8226/BR resistant cells assessed as reduction of cell viability. The following applies: condition multiple myeloma.
The nature of assay [34]: cells. The following applies: Homo sapiens, Bortezomib-resistant ANBL6 cell, 72 h. The source holds these as a separate data set.
The nature of assay [35]: Ratio of IC50 for inhibition of BCR-ABL/KIT/LCK/EPHA/DDR in human RPMI-8226 cells assessed as reduction of cell viability to IC50 for inhibition of BCR-ABL/KIT/LCK/EPHA/DDR in human melphalan-resistant RPMI-8226 cells assessed as reduction of cell viability. To be noted: time 72 hrs; condition multiple myeloma.
Assay [36] in a line: cells. The following applies: Homo sapiens, Melphalan-resistant RPMI-8226 cell, 72 h. The source holds these as a separate data set.

On to `Cn1cnc(-c2cc3nccc(Oc4ccc(NC(=S)NC(=O)Cc5ccccc5)cc4F)c3s2)c1`, for which the IC50 in assay [1] came to 9.33 µM; in assay [2], 10 µM; in [4], 10 µM; in assay [6] it was 6.46 µM; in assay [8], 10 µM; in assay [9], 8.91 µM. Further, the “Ratio IC50” value in assay [3] is listed as 1.07; in assay [5], 0.9; in assay [7], 1.55.
Consider `O=C(NOCC1CC1)c1ccc(F)c(F)c1Nc1ccc(I)cc1Cl` [CI-1040], for which the concentration for half-maximal inhibition (IC50) in [10] was determined as 5.13 µM; in assay [12] it was 10 µM; in assay [13] it was 4.9 µM; in assay [14], 2.04 µM; in assay [15], 8.13 µM; in [17], 7.59 µM. Moreover, the entries for the “Ratio IC50” value in [11], in [16] and in assay [18] were 0.27, 0.81 and 0.6, respectively.
Consider `Cn1c(=O)n(-c2ccc(C(C)(C)C#N)cc2)c2c3cc(-c4cnc5ccccc5c4)ccc3ncc21` [DACTOLISIB], for which the IC50 in “cells [19]” came out at 0.056 µM; in “cells [20]”, 0.0382 µM; in “cells [21]”, 0.0823 µM; in the assay “cells [22]” it was 0.0922 µM; in the assay “cells [26]” it was 0.0489 µM; in “cells [27]”, 0.0172 µM. For the same molecule, the entries for the “Ratio IC50” value in assay [23], in assay [24] and in assay [25] were 0.45, 1.68 and 0.4, respectively.
As to `Cc1cn(-c2cc(NC(=O)c3ccc(C)c(Nc4nccc(-c5cccnc5)n4)c3)cc(C(F)(F)F)c2)cn1` [NILOTINIB], the concentration for half-maximal inhibition (IC50) in “cells [28]” turned out to be 10 µM; in the assay “cells [29]”, 10 µM; in the assay “cells [30]” it was 9.83 µM; in “cells [32]” it was 10 µM; in the assay “cells [34]”, 10 µM; in the assay “cells [36]” it was 10 µM. Moreover, the “Ratio IC50” value in assay [31], in assay [33] and in assay [35] was 1 throughout.
